Experimental data: a melting point compilation (Tetko et al.; mined from patent text by program, amines drawn as free bases though some values may be those of a salt)

First: Clc1ccc(CNc2nc(NC3CCCc4ccccc43)c3ccccc3n2)cc1 (stereo unspecified)
Second: Cc1ccc2c(NCc3ccc(NC(=O)c4ccc(Cl)cc4)cc3)nc(N3CCCCCC3)nc2c1
The melting point of the first is lower: 166 to 167 °C for the first, 192 to 194 °C for the second.

Compared with `O=C(O)c1ccc(-c2ccc3nnn(Cc4ccc5ncccc5c4)c3n2)cc1F`, `Cc1ccc(NC(=O)c2ccc(CN(C)C)c(C(F)(F)F)c2)cc1-c1ccc2ccncc2c1` is lower in melting point: 254 to 257 °C for the first, 169 to 172 °C for the second.

First: CNc1c([N+](=O)[O-])c(Br)nn1Cc1ccccc1
Second: O=[N+]([O-])c1ccc2nc(-c3ccccc3)cc(Cl)c2c1
The melting point of the first is lower: 116 °C for the first, 166 to 167 °C for the second.

First: COc1c(I)cc(-c2c3ccccc3cc3sc4ccccc4c23)cc1I
Second: COc1ccc2c(c1)C(=O)c1ccccc1C2
The melting point of the first is higher: 228 to 230 °C for the first, 94.5 to 97.5 °C for the second.

First: CC(C)C(=O)Nc1ccc(OCC(O)CNC(C)(C)C)c(C#N)c1 (stereo unspecified)
Second: CC(C)C(=O)Nc1cccc(-c2ccnc3c(C(=O)c4ccco4)cnn23)c1
The melting point of the first is lower: 118 to 121 °C for the first, 189 to 191 °C for the second.

First: CCCC(CCC)NC(=O)c1ccc2oc(OCC)nc2c1
Second: CCOC(=O)c1nc2ccc(OC)cc2[nH]c1=O
The melting point of the first is lower: 128 to 129 °C for the first, 229 °C for the second.

First: CSc1ccc(-c2nc(SC)c(C#N)c(=O)n2-c2ccc(F)cc2)cc1
Second: N#CC1CC(c2c(F)cccc2F)=NC1c1ccc(-c2ccc(OC(F)(F)F)cc2)cc1 (stereo unspecified)
The melting point of the first is higher: 219 to 221 °C for the first, 145 °C for the second.

Compared with `FC(F)(F)c1cc(CO[C@@H]2CCCN(Cc3nnn[nH]3)[C@@H]2c2ccccc2)cc(C(F)(F)F)c1` (relative stereo), `c1ccc2c(c1)ncc1nc(C3CCCCCC3)[nH]c12` is higher in melting point: 114 to 115 °C for the first, 225 to 226 °C for the second.

First: O=C(O)c1ccc(N2CCSCC2)cc1
Second: COc1ccc(OC)c(C(=O)C=Cc2cccc(C(=O)O)c2)c1
The melting point of the first is higher: 233 to 235 °C for the first, 152 to 155 °C for the second.

Compared with `CC1(C)C2CC[C@@]1(C)C(=O)C(C(=O)Nc1ccc(F)c(C(F)(F)F)c1)C2=O` (stereo partly specified), `CC[C@@H]1O[C@](C#CC2CC2)(C(F)(F)F)c2c(ccc3c2OCO3)NC1=O` (relative stereo) is higher in melting point: 96 to 98 °C for the first, 201 to 202 °C for the second.

First: COC(=O)c1cc(OP(=S)(OC)OC)c(C(=O)OC)s1
Second: CCCOc1ccc(C=CC(=O)c2c(OC)cc(OC)cc2OC(=O)CC)cc1
The melting point of the first is lower: 71 °C for the first, 102 °C for the second.

First: CC(C)(C)C(=O)N1CC=C(C#Cc2ccc3c(c2)NC(=O)CC(c2cccc(C#N)c2)=N3)CC1
Second: O=C1CC(c2cccc(-n3ccnc3)c2)=Nc2ccc(-c3cccc(F)c3)cc2N1
The melting point of the first is higher: 219 °C for the first, 200 to 201 °C for the second.

Compared with `O=C(N1C=CC2=C(CCC=C2)c2ccccc21)n1ccnc1`, `Clc1ccc(COc2ccccc2C(=NOCc2ccccc2)n2ccnc2)cc1` is lower in melting point: 189 to 190 °C for the first, 94 to 95.5 °C for the second.

First: Clc1ccccc1C1=NOCCS1
Second: O=C1Nc2cc(Cl)cc3c2N(CC3)c2ccccc21
The melting point of the first is lower: 51 to 52 °C for the first, 252 to 255 °C for the second.

Compared with `c1ccc(OCCSCc2nnc(-c3ccc(OCCN4CCCCCC4)cc3)o2)cc1`, `O=C(COc1ccccc1)N[C@@H](Cc1ccc([N+](=O)[O-])cc1)C(=O)O` is higher in melting point: 40 °C for the first, 147 °C for the second.

Compared with `N#Cc1nc(N2CCNCC2)nc(N2CCS(=O)CC2)c1Cl`, `CCCOc1ccccc1-c1nc2nc(N3CCOCC3)ncc2c(=O)[nH]1` is lower in melting point: 206 to 208 °C for the first, 176 to 177 °C for the second.

First: COC(=O)CCC1=C(C)C2=NC1(CCC(=O)OC)C(C)C1(CCC#N)NC(C)(C=C3C=CC(=N3)C=c3ccc([nH]3)=C2)C(CCC#N)=C1C (stereo unspecified)
Second: CCCCn1nnnc1-c1c(O)ccc(-c2cccc(C(=O)OC)c2)c1O
The melting point of the first is higher: 201 to 205 °C for the first, 93 to 97 °C for the second.

First: Cn1cncc1C(O)(c1ccc(C(=O)O)cc1)c1ccc2c(c1)c(-c1cccc(Cl)c1)cc(=O)n2C (stereo unspecified)
Second: CC(=O)Nc1ccc(C)cc1Oc1c([N+](=O)[O-])cc(C(=O)O)cc1S(N)(=O)=O
The melting point of the first is higher: > 260 °C for the first, 238 to 240 °C for the second.

First: CCOC(=O)c1cnc2nc(C=CC(=O)O)c(OCC)cc2c1O
Second: CC(=O)Oc1ccc(C=CC(=O)O)cc1C=O
The melting point of the first is higher: > 280 °C for the first, 205 to 207 °C for the second.

First: Cc1ccc(Oc2cncc3sc(C(N)=O)cc23)cc1
Second: NS(=O)(=O)c1ccc(C2=C(c3ccc(F)c(Cl)c3)CCC2)cc1
The melting point of the first is higher: 196 to 197 °C for the first, 150 to 152 °C for the second.

Compared with `Cn1c(OCC(F)(F)C(F)F)n[nH]c1=O`, `C#CCOc1cc(-n2nnn(CC)c2=O)c(Cl)cc1F` is lower in melting point: 101 °C for the first, 88 to 89 °C for the second.

First: Nc1c2c(nc3ccccc13)CC(O)CC2O (stereo unspecified)
Second: CC(C)(C)OC(=O)NC1C2CN(CC(O)(c3ccccc3)c3ccccc3)CC21 (stereo unspecified)
The melting point of the first is higher: 158 to 162 °C for the first, 127 to 131 °C for the second.

First: CC(C)(C)OC(=O)N(CC(=O)O)Cc1ccccc1
Second: CC(C)(C)OC(=O)NCCNC(=O)c1ncccc1Oc1ccccc1Cl
The melting point of the first is higher: 94 to 97 °C for the first, 86 to 87 °C for the second.

First: Cc1cc(Nc2nccc(-c3sc(CO)nc3C)n2)ccc1N1CCOCC1
Second: Cc1ccc2c(c1)c(C)c1n2C(=O)C(Cc2nc[nH]c2C)CC1 (stereo unspecified)
The melting point of the first is lower: 93 to 94 °C for the first, 255 to 258 °C for the second.

First: CCOCc1nc2c(N)nc3c(c2n1CCCNS(C)(=O)=O)CCCC3
Second: CNS(=O)(=O)C(C)C(=O)C=C(C)N (stereo unspecified)
The melting point of the first is higher: 212 to 214 °C for the first, 140 to 143 °C for the second.

Compound `O=C=NCCC(F)(F)C(F)(F)C(F)(F)C(F)(F)C(F)(F)C(F)(F)C(F)(F)C(F)(F)C(F)(F)C(F)(F)F` has a melting point of 70 to 71 °C.
